Read-outs that look alike come from different tables or passages of the source.
What was measured:
[1] = Intracranial pressure (ICP) curves in clinical trial patients, slow 2-hour infusion; format: in vivo, human; details: two patients, slow infusion over 2 hours
Method: In order to avoid any potential safety issues, the infusion in human clinic trials was slowed down to 2 hours to generate the same AUC but a lower Cmax.
However two patients were treated in a clinical trial, using a slow infusion rate over a timespan of 2 hours.

[2] = Solubility assessment and pH of solution; format: physicochemical
Method: Ethanol was also assessed as part of this study.

[3] = biological target: T1, central NK1 receptors (Homo sapiens, UniProt P25103); assay: Phase 1 apomorphine challenge study: blocking of apomorphine induced emesis in healthy volunteers; format: in vivo; details: for Average Number of Retches or Vomits / Number of Retches (Events) / Number of Retches (Subjects) / Number of Vomits (Subjects) / Number of Vomits (Events): N = 5
T1 construct: from tissue; host or cells: central nervous system of healthy human volunteers (in vivo)
T1 sequence (P25103 whole entry): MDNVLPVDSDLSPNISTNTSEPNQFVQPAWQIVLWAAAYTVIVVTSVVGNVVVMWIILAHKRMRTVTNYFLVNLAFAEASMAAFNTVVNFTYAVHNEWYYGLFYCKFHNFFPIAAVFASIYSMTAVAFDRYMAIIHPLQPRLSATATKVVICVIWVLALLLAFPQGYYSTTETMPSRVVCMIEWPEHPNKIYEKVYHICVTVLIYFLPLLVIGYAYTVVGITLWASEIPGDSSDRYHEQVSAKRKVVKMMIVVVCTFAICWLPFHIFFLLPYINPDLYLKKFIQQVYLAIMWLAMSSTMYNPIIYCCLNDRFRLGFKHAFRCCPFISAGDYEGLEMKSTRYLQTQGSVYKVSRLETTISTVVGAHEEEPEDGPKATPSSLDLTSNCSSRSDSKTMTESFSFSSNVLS
Method: (§1) A pharmacodynamic study to assess functional blocking of central NK1 receptors was performed in healthy volunteers. This was done by testing the efficacy of the compound in blocking apomorphine induced emesis. This study indicates the need for a minimum concentration of the initial peak at infusion to obtain efficacious levels, rather than minimal plasma-levels at the time of apomorphine challenge.
(§2) In the phase 1 apomorphine challenge study the ability of the compound to block emesis induced by apomorphine was tested in healthy volunteers. […] At neither time point did subjects require rescue medication to prevent uncontrolled vomiting. On the other hand, when the apomorphine challenge was performed 2 hours after a 30 mg dose (n=5), an average of 4.2 retches and vomits were observed, which would have been even higher had two of five subjects not received rescue medication to block the apomorphine effects. Importantly the plasma concentration of the Compound 2 hours after the 30 mg dose was 60% higher than the plasma concentration 20 hours after the 90 mg dose.

[4] = Plasma concentrations in the apomorphine challenge study; format: in vivo, human
Method: as §1, §2

[5] = 30 mg, apomorphine challenge 2 h after dose
[6] = 90 mg, apomorphine challenge 2 h after dose
[7] = 90 mg, apomorphine challenge 20 h after dose

## Cc1ccccc1-c1cc(N2CCN(C)CC2)ncc1C(=O)N(C)Cc1cc(C(F)(F)F)cc(C(F)(F)F)c1 [Compound of Formula (I) 2HCl (R1 = CH3)]
[1]
  efficacy on ICP (ICP curves): no or minimal efficacy
[2]; 5 mg/mL (50 mg in 10 mL water)
  Solubility in Water, Result: Very soluble
[2]; 5 mg/mL in water
  pH of solution: 2.39
[2]; 10 mg/mL (100 mg in 10 mL water)
  Solubility in Water, Result: Very soluble
[2]; 10 mg/mL in water
  pH of solution: 2.14
[2]; 15 mg/mL (150 mg in 10 mL water)
  Solubility in Water, Result: Soluble
[2]; 15 mg/mL in water
  pH of solution: 2.02
[2]; 20 mg/mL (200 mg in 10 mL water)
  Solubility in Water, Result: Soluble
[2]; 20 mg/mL in water
  pH of solution: 1.87
[2]; 25 mg/mL (250 mg in 10 mL water)
  Solubility in Water, Result: Soluble
[2]; 25 mg/mL in water
  pH of solution: 1.81
[2]; 30 mg/mL (300 mg in 10 mL water)
  Solubility in Water, Result: Soluble
[2]; 30 mg/mL in water
  pH of solution: 1.75
[2]; 35 mg/mL (350 mg in 10 mL water)
  Solubility in Water, Result: Soluble
[2]; 35 mg/mL in water
  pH of solution: 1.72
[2]; 40 mg/mL (400 mg in 10 mL water)
  Solubility in Water, Result: Soluble
[2]; 40 mg/mL in water
  pH of solution: 1.66
[2]; 45 mg/mL (450 mg in 10 mL water)
  Solubility in Water, Result: Soluble
[2]; 45 mg/mL in water
  pH of solution: 1.54
[2]; 50 mg/mL (500 mg in 10 mL water)
  Solubility in Water, Result: Soluble
[2]; 50 mg/mL in water
  pH of solution: 1.52
[2]; 50 mg/mL, stated after 'Ethanol was also assessed', solvent not explicit, golden yellow colour
  Solubility: freely soluble
[3]; [5]
  Average Number of Retches or Vomits: 4.2
  Number of Retches (Events): 9
  Number of Retches (Subjects): 2
  Number of Vomits (Subjects): 3
[3]; 30 mg, apomorphine challenge 2 h after dose, 2 of 5 subjects rescued
  Number of Vomits (Events): > 12
[3]; [6]
  Average Number of Retches or Vomits: 1.4
  Number of Retches (Events): 5
  Number of Retches (Subjects): 2
  Number of Vomits (Events): 2/2
  Number of Vomits (Subjects): 2/2
[3]; [7]
  Average Number of Retches or Vomits: 2.6
  Number of Retches (Events): 12
  Number of Retches (Subjects): 4
  Number of Vomits (Events): 1/1
  Number of Vomits (Subjects): 1/1
[3]; after peak level of at least 1000-1300 ng/ml
  duration of reduction of retches/vomits once NK1 blockade is achieved: ≥ 20 h
[4]; 30 mg/2 h versus 90 mg/20 h
  plasma concentration 2 hours after the 30 mg dose, higher than plasma concentration 20 hours after the 90 mg dose: 60%
[4]; human, plasma, intravenous, 30 mg, apomorphine challenge 2 h after dose, N = 5, read-out: Cmax at end of infusion
  Cmax: 252 ng/mL
[4]; human, plasma, intravenous, 90 mg, apomorphine challenge 2 h after dose, N = 5, read-out: Cmax at end of infusion
  Cmax: 1040 ng/mL
[4]; human, plasma, intravenous, 90 mg, apomorphine challenge 20 h after dose, N = 5, read-out: Cmax at end of infusion
  Cmax: 1270 ng/mL
[4]; human, plasma, intravenous, 90 mg, healthy volunteers, apomorphine challenge, read-out: minimum initial peak level (Cmax) at infusion to obtain efficacious levels / central NK1 blockade
  Cmax: 1000 to 1300 ng/mL
[4]; human, plasma, intravenous, 30 mg, apomorphine challenge 2 h after dose, N = 5, read-out: Conc. at challenge
  concentration at 2 h: 112 ng/mL
[4]; human, plasma, intravenous, 90 mg, apomorphine challenge 2 h after dose, N = 5, read-out: Conc. at challenge
  concentration at 2 h: 356 ng/mL
[4]; human, plasma, intravenous, 90 mg, apomorphine challenge 20 h after dose, N = 5, read-out: Conc. at challenge
  concentration at 20 h: 69 ng/mL

— patent US20230124548A1, “Therapeutic Methods And Uses Thereof” (Eustralis Pharmaceuticals Limited (Trading As Pressura …, priority 2019, published 2023)
